Data taken from US5091425A, “5-(heterocyclylalkanoyl)amino-4-hydroxypentanamides” (Imperial Chemical Industries plc, priority 1988, dated 1992).

Target: T1, partially purified human renin (Homo sapiens, UniProt P00797)
T1 sequence (P00797 67-406): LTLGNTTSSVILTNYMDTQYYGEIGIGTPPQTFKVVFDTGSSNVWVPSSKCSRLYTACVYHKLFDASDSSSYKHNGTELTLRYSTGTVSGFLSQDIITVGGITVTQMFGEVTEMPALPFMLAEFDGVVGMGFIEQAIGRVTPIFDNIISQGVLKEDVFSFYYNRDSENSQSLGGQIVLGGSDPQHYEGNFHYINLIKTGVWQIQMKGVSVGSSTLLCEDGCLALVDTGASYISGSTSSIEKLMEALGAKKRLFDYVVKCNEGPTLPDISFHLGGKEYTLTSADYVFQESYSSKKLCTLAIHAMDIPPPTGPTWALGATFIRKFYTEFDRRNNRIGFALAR
Test: in vitro inhibition of renin-catalysed angiotensin I generation (radioimmunoassay)
Assay type: biochemical
Details: human renin with angiotensinogen; angiotensin I by radioimmunoassay; read-out: IC50 (concentration for 50% inhibition of the renin catalysed reaction)
Method: The inhibition of the catalytic activity of renin, and in particular of human renin, may be assessed in vitro using a routine laboratory procedure involving the incubation of a test compound initially at a concentration of 100 micromolar in a buffered mixture containing appropriate concentrations of partially purified human renin and the natural renin substrate angiotensinogen. The formation of the angiotensin known as angiotensin I (which is assayed by a standard radioimmunoassay using procedures well known in the art) is inhibited by those compounds which inhibit the action of renin and the degree of inhibition is readily determined by comparing the angiotensin I generation rate in the presence of the test compound (at the specified test concentration) with the control rate of angiotensin I generation in the absence of the test compound.
In this standard test procedure, compounds which show at least 30% inhibition are retested at lower concentrations to determine their inhibitory potency. For determination of the IC50 (concentration for 50% inhibition of the renin catalysed reaction), concentrations are ordinarily chosen to allow testing over at least four orders of magnitude centred about the predicted approximate IC50, which latter is subsequently determined from a plot of percentage inhibition against concentration of the test compound. […]

Question: How did the IC50 turn out when CCCCNC(=O)[C@@H](C[C@H](O)[C@H](CC1CCCCC1)NC(=O)C(Cc1cccnc1)c1nnc2c(CCC)nc(-c3cccnc3)cn12)C(C)C (mixture of isomers) [Example 6, (2S,4S,5S)-N-butyl-6-cyclohexyl-4-hydroxy-2-isopropyl-5-[(2RS)-2-(8-propyl-6-(3-pyridyl)-1,2,4-triazolo[4,3-a]pyrazin-3-yl)-3-(3-pyridyl)propionamido]hexanamide] was run?
Answer: Its IC50 is 0.2 nM.
